Measured values taken from patent US6262095A, “Use of tricyclic derivatives of 1,4-dihydro-1,4-dioxo-1H-naphthalene, novel compounds obtained and their application in theraphy” (Laboratoire Innothera, priority 1995, dated 2001).
Read-outs that look alike come from different tables or passages of the source.

How the values were obtained:
[1] = system: capillary resistance of rats; experiment: Capillary resistance of rats after oral administration (petechial index); type: in vivo, rat (Wistar); settings: rat
Protocol: The increase in the capillary resistance is evaluated by the modification of the petechial index (negative pressure inducing the extravasation of the erythrocytes), measured by a method derived from the angiosterrometer of Parrot.
The studies are carried out on male Wistar rats with an average weight of 200 g (approximate age six weeks). The bottom area of the back is shorn, then the hair is pulled by means of a paste based on a derivative of thioglycolic acid and calcium hydroxide. After approximately 30 min, the skin is abundantly rinsed and dried.
On the day of the study, the rats are maintained without constraint. A low pressure of 80 mm of mercury is applied. If the petechiae (extravasation of erythrocytes) have not appeared within 15 sec, the low pressure is increased as a countermeasure, keeping the suction cap at the same place.
The minimum low pressure where petechias appear, in mm of mercury, expresses the basal capillary resistance (before any treatment). Two measurements are made for each test at different sites on of the back.
The rats are treated by the oral route. […] All the measurements are done in the blind mode.
A percentage of variation in the capillary resistances of the animals treated compared to their basal capillary resistance is calculated for each compound studied, at each treatment time and compared with the control group (excipient only) or the reference group.

[2] = system: hyperpermeability induced by zymosan in rats; experiment: Inflammatory hyperpermeability induced by zymosan in rats; type: in vivo, rat (Wistar); settings: rat, oral
Protocol: The vascular permeability is studied in vivo by measuring the extravasation of albumin, the quantity of which is determined using an albumin-binding dye (Evans blue).
The hyperpermeability is induced by the intradermal injection of a solution of histamine, bradykinin, or zymosan.
The abdominal walls of the rats (Wistar, 200-230 g) are shorn 1 h before the start of the experiment. The product to be tested is injected by the intraperitoneal route or orally 1-4 h before the sacrifice. The rats are anesthetized with a halothane mixture. They then receive an intradermal injection in their abdomen of 0.10 or 0.15 mL (or for histamine 6.7 or […]) of inflammatory agent and an intravenous injection of 1 mL of 0.5% Evans blue solution in the vein of the penis. These injections are carried out 30 min before the sacrificing.
30 min after these two injections, the rats are sacrificed by cervical dislocation.
At the site of the injection of the inflammatory agent, the skin is cut and placed into glass tubes with a ground[-glass] neck containing 3 mL of fuming hydrochloric acid. […] After allowing the preparation to stand for 30 min, 7 mL of dichloromethane are added. The tubes are periodically agitated for 1 h. The aqueous phase is eliminated by aspiration, and the organic "dichloromethane" phase is filtered. The optical densities are quantified by absorption spectrophotometry at a wavelength of 620 nm, against a blank [control] containing only dichloromethane. The averages of the optical densities of the different lots of treated or control animals are calculated, then a percentage of variation of the values corresponding to the treated [experimental] animals compared to those of the control animals is calculated.

[3] = system: saphenous vein in rabbits; experiment: Contractile effect on the rabbit saphenous vein precontracted by a depolarizing physiological solution (K+ 40 mM); type: cell-based; settings: precontracted with 40 mM potassium; for EC50: read-out: ED50 (the source's name)
Protocol: The contractile effects are measured in vitro under static conditions on vascular capacitance or resistance rings of saphenous, femoral, jugular, mesenteric, and caval veins . . . and on femoral, carotid, basilar, or mesenteric arteries, as well as the thoracic or abdominal aorta . . . in rats (Wistar, 200-250 g), rabbits (New Zealand, 2-2.5 kg), guinea pigs (Dunkin Hartley 250-300 g).
The rings are placed in a chamber for isolated organs (25 mL for capacitance vessels and 2.5 mL for resistance vessels according to Mulvany), and maintained under isometric conditions using two rigid threads inserted inside the vessel, avoiding causing damage to the endothelium. The vessels are bathed in a modified Krebs solution (in mM: NaCl=118; KCl=4.6; CaCl2 =2.5; MgSO4 =1.2; KH2 PO4 =1.17; NaHCO3 =25; glucose=11), continuously aerated using a gaseous mixture of 95% O2 and 5% Co2, at a pH=7.4, and regulated by thermostat at 37° C. The rings are adjusted to their optimal point as far as the tension-length relationship is concerned. The tensions developed generate an electrical signal through the intermediary of a force sensor (Wheatstone bridge). […] The pharmacological studies are carried out after a few standardized preliminary contractile stimulations using a depolarizing solution (hyperpotassic type obtained by replacing NaCl with KCl in equimolar quantities), along with rinsings and periods of equilibration in a pure physiological solution. The presence of endothelium is verified by the relaxation induced by increasing the concentration of acetylcholine after the stabilization of a vascular precontraction.
The forces of contraction developed by the vascular rings in response to the different compounds are studied on quiescent or electrically stimulated vessels (5-8 Hz), by a "physiological" depolarizing hyperpotassic solution (KCl: 20, 40 mM), by noradrenaline (increasing concentrations), [and by] serotonin (increasing concentrations).
The contractions are expressed in mg force or as a percentage of the maximum contraction at the time of the depolarization with a "physiological" hyperpotassic solution.
The contractile effect of different compounds on the saphenous vein in rabbits, precontracted by a depolarizing "physiological" solution with a potassium concentration of 40 mM, is given as an illustration; the maximum effect produced by each compound is expressed as a percentage of the maximum contraction induced by depolarizing hyperpotassic solutions and as value of ED50): […]

[4] = system: mice; experiment: Single oral administration toxicity in mice; type: in vivo, mouse
Source text: Moreover, the compounds of the invention and their possible salts have a very low toxicity.

[5] = 0.1 mg/kg, ** granulometry: 0.6-0.7 mm
[6] = Oryctolagus cuniculus, % of maximum contraction induced by hyperpotassic solutions
[7] = single oral administration of 500 mg/kg

EC50 ([3]; Oryctolagus cuniculus) [nM]	Molecule	Emax [3, 6] [%]	Zymosan-induced hyperpermeability, effect after 2 h ([2]; 0.1 mg/kg)	Zymosan-induced hyperpermeability, effect after 4 h ([2]; 0.1 mg/kg)	further results
37	O=C1c2ccccc2C(=O)c2sc(-n3cccc3)nc21 [Example 28, 4,9-Dihydro-4,9-dioxo-2-(1-pyrrolyl)-naphtho-[2,3]-thiazole]	29 ± 2			Increase of capillary resistance, effects after 4 h [1, 5]: 10 % of the control; Increase of capillary resistance, effect after 6 h [1, 5]: 13 % of the control; Zymosan-induced hyperpermeability, effect after 2 h ([2]; 5 mg/kg): -29 % of the control; Zymosan-induced hyperpermeability, effect after 4 h ([2]; 5 mg/kg): 0 % of the control
	COc1ccc2c(c1)C(=O)c1nc(-c3ccccc3)sc1C2=O [Example 26, 4,9-Dihydro-4,9-dioxo-6-methoxy-2-phenylnaphtho[2,3-d]thiazole]		-14 % of the control	-24 % of the control	
	O=C1c2ccccc2C(=O)c2sc(-c3ccc(F)cc3)nc21 [Example 14, 4,9-Dihydro-4,9-dioxo-2-(4-fluorophenyl)naphtho[2,3-d]thiazole]		-31 % of the control	-15 % of the control	
160	Cc1ccc(-c2nc3c(s2)C(=O)c2ccccc2C3=O)o1 [Example 38, 4,9-Dihydro-4,9-dioxo-2-(5-methyl-2-furyl)naphtho-[2,3-d]thiazole]	12 ± 1	-12 % of the control	-3 % of the control	
36	Cc1cccc(-c2nc3c(o2)C(=O)c2ccccc2C3=O)c1 [Example 7, 4,9-Dihydro-4,9-dioxo-2-(3-methylphenyl)-naphtho[2,3-d]oxazole]	17 ± 2			
	O=C1c2ccccc2C(=O)c2sc(-c3ccncc3)nc21.O=S(=O)(O)O [Example 17, 4,9-Dihydro-4,9-dioxo-2-(4-pyridyl)-naphtho[2,3-d]thiazole sulfate]		-15 % of the control	-23 % of the control	
70	O=C1c2ccccc2C(=O)c2sc(-c3ccccn3)nc21 [Example k, 4,9-Dihydro-4,9-dioxo-2-(2-pyridyl)-naphtho[2,3-d]thiazole]	26 ± 9			
	O=C1c2ccccc2C(=O)c2oc(-c3ccc(Cl)cc3)nc21 [Example 10, 2-(4-Chlorophenyl)-4,9-dihydro-4,9-dioxo-naphtho[2,3-d]oxazole]				Increase of capillary resistance, effects after 4 h ([1]; 0.1 mg/kg): 25 % of the control; Increase of capillary resistance, effect after 6 h ([1]; 0.1 mg/kg): 46 % of the control
	O=C1c2ccccc2C(=O)c2[nH]c(-c3ccccc3F)nc21 [Example 2, 4,9-Dihydro-4,9-dioxo-2-(2-fluorophenyl)-1H-naphtho[2,3-d]imidazole]				Increase of capillary resistance, effects after 4 h ([1]; 0.1 mg/kg): 25 % of the control; Increase of capillary resistance, effect after 6 h ([1]; 0.1 mg/kg): 28 % of the control
	O=C1c2ccccc2C(=O)c2sc(-c3ccc(F)cc3F)nc21 [Example 15, 2-(2,4-Difluorophenyl)-4,9-dihydro-4,9-dioxo-naphtho[2,3-d]thiazole]				Increase of capillary resistance, effects after 4 h ([1]; 0.1 mg/kg): 20 % of the control; Increase of capillary resistance, effect after 6 h ([1]; 0.1 mg/kg): 27 % of the control
	Cc1nc2c(n1C)C(=O)c1ccccc1C2=O.O=S(=O)(O)O [Example 1, 4,9-Dihydro-4,9-dioxo-1,2-dimethyl-1H-naphtho[2,3-d]imidazole sulfate]				Increase of capillary resistance, effects after 4 h ([1]; 0.1 mg/kg): 37 % of the control; Increase of capillary resistance, effect after 6 h ([1]; 0.1 mg/kg): 35 % of the control; Zymosan-induced hyperpermeability, effect after 2 h ([2]; 5 mg/kg): -28 % of the control; Zymosan-induced hyperpermeability, effect after 4 h ([2]; 5 mg/kg): -28 % of the control
90	Nc1nc2c(s1)C(=O)c1ccccc1C2=O [Example i, 2-Amino-4,9-dihydro-4,9-dioxonaphtho[2,3-d]thiazole]	18 ± 1			
	Cc1ccccc1-c1nc2c(o1)C(=O)c1ccccc1C2=O [Example 6, 4,9-Dihydro-4,9-dioxo-2-(2-methylphenyl)-naphtho[2,3-d]oxazole]				toxic effect and mortality [4, 7]: no observable toxic effect and no mortality
75	O=C1c2ccccc2C(=O)c2sc(-c3ccc(Cl)o3)nc21 [Example 19, 2-(5-Chloro-furan-2-yl)-4,9-dihydro-4,9-dioxo-naphtho[2,3-d]thiazole]	20 ± 8			
53	COc1ccc2c(c1)C(=O)c1sc(-c3ccco3)nc1C2=O [Example 59, 4,9-Dihydro-4,9-dioxo-2-(2-furyl)-7-methoxynaphtho-[2,3-d]thiazole]	18 ± 4	-13 % of the control	+21 % of the control	
	O=C1c2ccccc2C(=O)c2oc(-c3ccc(F)cc3)nc21 [Example 5, 4,9-Dihydro-4,9-dioxo-2-(4-fluorophenyl)-naphtho[2,3-d]oxazole]				toxic effect and mortality [4, 7]: no observable toxic effect and no mortality
	4,9-Dihydro-4,9-dioxo-2-(2-furyl)-5-hydroxynaphtho-[2,3-d]thiazole or 4,9-Dihydro-4,9-dioxo-2-(2-furyl)-8-hydroxynaphtho-[2,3-d]thiazole [Example 57]				Emax (% maximum contraction) ([3]; % of maximum contraction induced by hyperpotassic solutions): 22±3 % maximum contraction; EC50 [3]: 41 nM
88	O=C1c2ccccc2C(=O)c2sc(-c3ccoc3)nc21 [Example 18, 4,9-Dihydro-4,9-dioxo-2-(3-furyl)naphtho[2,3-d]thiazole]	39 ± 6			Increase of capillary resistance, effects after 4 h ([1]; 5 mg/kg): 25 % of the control; Increase of capillary resistance, effect after 6 h ([1]; 5 mg/kg): 28 % of the control
	COc1ccc2c(c1)C(=O)c1sc(-c3ccccc3)nc1C2=O [Example 25, 4,9-Dihydro-4,9-dioxo-7-methoxy-2-phenylnaphtho[2,3-d]thiazole]		-14 % of the control	-17 % of the control	

Molecule	EC50 ([3]; Oryctolagus cuniculus) [nM]	Emax [3, 6] [%]	Zymosan-induced hyperpermeability, effect after 2 h ([2]; 0.1 mg/kg)	Zymosan-induced hyperpermeability, effect after 4 h ([2]; 0.1 mg/kg)	further results
O=C1c2ccccc2C(=O)c2sc(-c3cccc(F)c3)nc21 [Example 13, 4,9-Dihydro-4,9-dioxo-2-(3-fluorophenyl)-naphtho[2,3-d]thiazole]	57	21 ± 3			toxic effect and mortality ([4]; single oral administration, 1 g/kg): no observable toxic effect and no mortality
